20 compounds from PubChem BioAssay AID651874 (Southern Research Specialized Biocontainment Screening …, 2012) can be followed below.

pIC50: −log10 of the molar value.

This assay deals with VEEV TrD infected cells, viral cytopathic effect inhibition. In words: VEEV TrD cytopathic effect inhibition, confirmation, cell-based, Trinidad donkey strain, set 2 (AID 651874). (In general: Cytopathic effects are the visible damage that an infection or toxin causes in cultured cells.)
As for `CN1CCN(C)C(=Nc2cc(Cl)c(C#N)cc2C(=O)Nc2ccccc2)C1`, the pIC50 (commonly −log10 of the IC50, conventionally taken in molar units) was 6.95. Under `CCN1CCN(Cc2nc3ccc([N+](=O)[O-])cc3c(=O)n2-c2ccccc2F)CC1` stands 6.25.

Regarding `O=c1c2cc([N+](=O)[O-])ccc2nc(CN2CCNCC2)n1-c1ccccc1F`, the pIC50 was 6.83. Consider `COc1cccc(-n2c(CN3CCNCC3)nc3ccc([N+](=O)[O-])cc3c2=O)c1`, for which the pIC50 was 5.25. Turning to `O=c1c2cc([N+](=O)[O-])ccc2nc(CN2CCNCC2)n1-c1ccccc1`, the negative logarithm of the IC50 (pIC50) was 7.07. As to `CN1CCN(C)C(=Nc2ccc([N+](=O)[O-])cc2C(=O)Nc2ccccc2)C1`, the pIC50 was 7.40. Regarding `CCN1CCN(C)CC1=Nc1ccc([N+](=O)[O-])cc1C(=O)Nc1ccccc1`, the pIC50 is 7.47. Consider `CN1CCN(C)C(=Nc2ccc(C#N)cc2C(=O)Nc2cccc(F)c2)C1`, for which the pIC50 is 6.08. With `CN1CCN(C)C(=Nc2ccc([N+](=O)[O-])cc2C(=O)Nc2ccccc2F)C1`, the pIC50 is 6.80. On to `O=c1c2cc([N+](=O)[O-])ccc2nc(CN2CCNCC2)n1-c1ccsc1`, for which the pIC50 is 6.04. For `COc1ccc(NC(=O)c2cc([N+](=O)[O-])ccc2N=C2CN(C)CCN2C)cc1`, the pIC50 is 7.35.

On to `CN1CCN(Cc2nc3ccc([N+](=O)[O-])cc3c(=O)n2-c2ccccc2F)CC1`, for which the pIC50 was 6.86. The result for `CCN1CCN(Cc2nc3ccc([N+](=O)[O-])cc3c(=O)n2-c2ccccc2)CC1` reads 6.62; that for `CCN1CCN(Cc2nc3ncc([N+](=O)[O-])cc3c(=O)n2-c2ccccc2)CC1`, 5.51; that for `CCN1CCN(Cc2nc3ccc([N+](=O)[O-])cc3c(=O)n2-c2cccc(F)c2)CC1`, 6.56. On to `CNCCCN(C)Cc1nc2ccc([N+](=O)[O-])cc2c(=O)n1-c1ccccc1`, for which the negative-log IC50 (pIC50) was 6.39.

As to `CCN1CCN(Cc2nc3ccc(C#N)cc3c(=O)n2-c2ccccc2)CC1`, the negative-log IC50 (pIC50) is 5.96. The result for `COc1ccc(-n2c(CN3CCNCC3)nc3ccc([N+](=O)[O-])cc3c2=O)cc1` reads 7.02. Under `CN1CCN(C)C(=Nc2ccc(C#N)cc2C(=O)Nc2ccccc2)C1` stands 6.50; under `CCN1CCN(Cc2nc3ccc([N+](=O)[O-])cc3c(=O)n2-c2ccc(F)cc2)CC1`, 6.22.
